“And” between values parts separate entries of the source, which are not always exact repeats. Equal values may be shown once.
Tested on: Oxa-induced colitis
Assay: Oxazolone (Oxa)-induced colitis mouse model
Type: in vivo
Conditions: for Colon length / Colon weight (wet weight per length): 6 days, mean ± SD
From the text: In this Example, mouse models to which oxazolone (4-ethoxymethylene-2-phenyl-2-oxazolin-5-on, hereinafter, Oxa) is used will be described as colitis models. When Oxa was first applied to skin, subsequently administered enterally after a certain period of time, an experimental ulcerative colitis model similar to human ulcerative colitis in terms of not only symptoms such as suppression of body weight increase, blood in stools, and anemia and formation of colon erosion but also immune cells was built (Non-Patent Literature 4). A suppression effect of Compound X on colitis in such a model as the test model showing pathological conditions more similar to human ulcerative colitis was examined. For the examination items, the length and weight of the colon were examined as changes in colon properties are widely known to occur also in this model.
For treatment, Balb/c, male mice were purchased from CHARLES RIVER LABORATORIES JAPAN, INC. in accordance with previous literature (Non-Patent Literature 5) and 8-week old mice with no abnormal general conditions during quarantine and acclimation period were used for the experiment. After acclimation, the animals were divided in such a way as to be 1 mouse per cage. Oxa used in the experiment was purchased from Sigma.
Fur at back of the neck was shaved in an area of 1.5×1.5 cm under anesthesia, and 150 μL (a 100% ethanol solution) of 3% (wt/vol) Oxa was added using a pipette and applied between the shoulders to sensitize (Day 1). The mice were kept under such a typical breeding environment, fasted for 16 hours from Day 7 (water supply was continued), and subsequently on Day 8 100 μL of a solution of 1% (wt/vol) Oxa in 50% ethanol was transanally administered into the rectum (3.5 cm from the anus) using a catheter under anesthesia. Hereinafter, the above treatment is described as Oxa treatment. After treatment, typical feeding breeding was carried out.
Starting on the day following intrarectal administration of Oxa, test substances were orally administered (once daily, for 6 days). 5-Aminosalicylic acid (hereinafter 5-ASA, Tokyo Chemical Industry, Co., Ltd.) and prednisolone (hereinafter, PSL, Sigma), which are anti-inflammatory agents used for treating ulcerative colitis, were used as positive controls for the test. After group division, each of the test substances of Table 6 was suspended in a solution of 0.5% sodium carboxymethyl cellulose (hereinafter, CMC, Nacalai Tesque Inc.) in such a way as to be each treatment of Table 6 and orally administered once daily. […] These control groups, Groups 1 and 2, were orally administered, as the test substance, with the 0.5% CMC solution which was used as the medium.
The test started with 6 mice in Group No. 1 and 9 mice each in Group Nos. 2 to 6. After the treatment started, death of animals in Group Nos. 2 to 6 due to the cause considered enteritis from Oxa treatment was observed and thus 6 mice in Group Nos. 1 and 3, and 5 mice in Group Nos. 2 and 6, and 7 mice in Group Nos. 4 and 5 were finally used for analysis.
It is generally acknowledged as a known fact that Oxa treatment causes colon tissue changes such as the length of colon is shortened while the weight increases. For evaluating the therapeutic effect of Compound X, the length and weight of the colon were measured. The mice were euthanized under anesthesia on day 7 of Oxa treatment and dissected to remove the colon. The removed colon was quickly measured for a length in a relaxed state. Subsequently, feces in the intestinal tract were removed and sufficiently washed with phosphate buffered saline (Wako Pure Chemical Industries, Ltd.) and measured for a wet weight.

[1] = Group Nos. 3 to 6 of Table 7, in words
[2] = Oxa treatment + high dose 10 mg/kg/day oral, day 7, 10 mg/kg/day

CC1=C(/C=C/C(C)=C/C=C/C(C)=C/C=C/C=C(C)/C=C/C=C(C)/C=C/C2=C(C)C(=O)[C@@H](OC(=O)CNC(=O)NCCCC(=O)O)CC2(C)C)C(C)(C)C[C@H](OC(=O)CNC(=O)NCCCC(=O)O)C1=O.NCCCC[C@H](N)C(=O)O.NCCCC[C@H](N)C(=O)O [Compound X, 4-(3-{4-[18-(4(S)-[3-(3-Carboxypropyl)ureidoacetoxy]-2,6,6-trimethyl-3-oxocyclohexa-1-enyl)-3,7,12,16-tetramethyloctadeca-1(E),3(E),5(E),7(E),9(E),11(E),13(E),15(E),17(E)-nonaenyl]-3,5,5-trimethyl-2-oxocyclohex-3-enyl-1(S)-oxycarbonylmethyl}ureido)butyric acid dilysine salt]
Colon length compared with Vehicle group [1]: longer length of the colon than Vehicle group
Colon wet weight compared with Vehicle group [1]: suppressed weight increases compared with Vehicle group
Colon length [2]: 8.74 cm and 8.74 ± 0.48 cm
Colon weight (wet weight per length) [2]: 2.80 mg/mm and 2.80 ± 0.43 mg/mm
Colon length (Oxa treatment + low dose 3 mg/kg/day oral, Balb/c mice, day 7 of Oxa treatment, 3 mg/kg/day): 8.72 cm and 8.72 ± 0.50 cm
Colon weight (wet weight per length) (Oxa treatment + low dose 3 mg/kg/day oral, day 7, 3 mg/kg/day): 3.44 mg/mm and 3.44 ± 0.45 mg/mm
